{
  "source": "PubChem BioAssay (NCI)",
  "key": {"[1]": {"tested_on": "SN12K1 renal", "experiment": "NCI tumour cell line growth inhibition, 48 h"}, "[2]": {"tested_on": "P388 leukemia", "experiment": "NCI tumour cell line growth inhibition, 48 h"}},
  "note": "“And” between values parts separate entries of the source, which are not always exact repeats. Identical values can stand only once.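 Briefly, cells in 96-well plates were exposed to five compound concentrations for 48 h, and endpoints were estimated by linear interpolation. Here, GI50 denotes the concentration required for 50% inhibition of growth. TGI: concentration producing complete growth inhibition.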",
  "data": [
    {"smiles": "O=C(Nc1ccccc1)c1c(O)[nH]c(=S)[nH]c1=O", "values": [
      {"measurement": "GI50", "setting": "[1]", "result": 25.2, "unit": "µM"},
      {"measurement": "TGI", "setting": "[1]", "result": "51.8 µM and 75.1 µM"},
      {"measurement": "GI50", "setting": "[2]", "result": 67, "unit": "µM"},
      {"measurement": "TGI", "setting": "[2]", "result": "57.7 µM and > 250 µM"}
    ]}
  ]
}
